The text below walks through data of US20040247700A1 (priority 2001, published 2004).

“And” between values parts separate entries of the source, which are not always exact repeats. Equal values may be shown once. Read-outs that look alike come from different tables or passages of the source.

The target in test [1] is T1, COX-2 (Mus musculus, UniProt Q05769).
T1 construct: LPS, which was used to induce the expression of COX-2 in the RAW 264.7 cells; host or cells: RAW 264.7 (murine), LPS-stimulated
T1 sequence (Q05769 18-604): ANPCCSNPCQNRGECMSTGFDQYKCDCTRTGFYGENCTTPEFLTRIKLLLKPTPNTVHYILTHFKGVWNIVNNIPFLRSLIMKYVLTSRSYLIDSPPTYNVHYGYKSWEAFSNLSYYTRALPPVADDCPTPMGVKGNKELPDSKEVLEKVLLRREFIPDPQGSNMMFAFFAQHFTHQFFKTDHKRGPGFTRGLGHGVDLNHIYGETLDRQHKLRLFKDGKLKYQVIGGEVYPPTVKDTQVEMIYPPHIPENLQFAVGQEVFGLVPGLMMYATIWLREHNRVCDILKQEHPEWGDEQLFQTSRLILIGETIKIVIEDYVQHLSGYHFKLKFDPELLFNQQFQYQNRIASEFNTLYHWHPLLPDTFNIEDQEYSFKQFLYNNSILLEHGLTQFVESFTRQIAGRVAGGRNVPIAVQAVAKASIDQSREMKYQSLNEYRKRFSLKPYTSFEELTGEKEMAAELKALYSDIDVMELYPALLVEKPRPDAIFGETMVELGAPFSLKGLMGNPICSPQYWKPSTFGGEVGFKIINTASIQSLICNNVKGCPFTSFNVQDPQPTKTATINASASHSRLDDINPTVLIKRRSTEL
Put plainly: cell-based.
Description: The DMEM growth medium was made as follows 50 mL of heat inactivated FBS and 5 mL of penicillin/streptomycin were added to a 500 mL bottle of DMEM and stored at 4° C. This was warmed to 37° C. in a water bath before use and for best results should be used within three months.
On day one of the experiment, the log phase 264.7 cells were plated at 8×10^4 cells per well in 0.2 mL growth medium per well in a 96-well tissue culture plate. After 6 to 8 hours post plating, 100 μL fresh medium. […] It was mixed until dissolved and stored at 4° C. Immediately before use, it was thawed at room temperature or in a 37° C. water bath. A new solution was prepared every 60 days.
On day two of the experiment, the test materials were prepared as 1000× stock in DMSO. For example, if the final concentration of the test material was to be 10 μg/mL, a 10 mg/mL stock was prepared by dissolving 10 mg of the test material in 1 mL of DMSO. Fresh test materials were prepared on day 2 of the experiment. In 1.7 mL microfuge tubes, 1 mL DMEM without FBS was added to obtain test concentrations of 0.05, 0.10, 0.5, and 1.0 μg/mL. 2 μL of the 1000×DMSO stock of the test material was added to the 1 mL of medium without FBS. The tube contained the final concentration of the test material was concentrated 2-fold. The tube was placed in incubator for 10 minutes to equilibrate.
One-hundred mL of medium was removed from each well of the cell plates prepared on day one. One-hundred mL of equilibrated 2× final concentration the test compounds were added to cells and incubated for 90 minutes. LPS in DMEM without FBS was prepared by adding 44 μL of the 1 mg/mL DMSO to 10 mL of medium. For each well of cells to be stimulated, 20 μL of LPS (final concentration of LPS is 0.4 μg/mL of LPS) was added.
Determination of PGE2 Concentration in Medium
Equipment—freezer, 30° C.
General Procedure—EIA Buffer was prepared by diluting the contents of the EIA Buffer Concentrate (vial #4) with 90 ml of Ultra-pure water. Vial #4 was rinsed several times to ensure all crystals had been removed and was then placed into a 100 mL storage bottle and stored at 4° C.
The Wash Buffer was prepared by diluting Wash Buffer Concentrate (vial #5) 1:400 with Ultra-pure water. 0.5 ml/liter of Tween 20 (vial #5a) was then added (using a syringe for accurate measurement). For one liter Wash Buffer add 2.5 ml Wash Buffer Concentrate, 0.5 ml Tween-20, and 997 ml Ultra-pure water. The solution was stored in a 1 liter storage bottle at 4° C.
The Prostaglandin E2 standard was reconstituted as follows. A200 μL pipet tip was equilibrated by repeatedly filling and expelling the tip several times in ethanol. The tip was used to transfer 100 μL of the PGE2 Standard (vial #3) into a 1.7 mL microfuge tube. 900 μL Ultra-pure water was added to the tube and stored at 4° C., which was stable for ˜6 weeks. The Prostaglandin E2 acetylcholinesterase tracer was reconstituted as follows. 100 μL PGE2 tracer (vial #2) was mixed with 30 mL of the EIA Buffer in a 50 mL centrifuge tube and stored at 4° C.
The Prostaglandin E2 monoclonal antibody was reconstituted as follows. 100 μL PGE2 Antibody (vial #1) was mixed with 30 mL of the EIA buffer in a 50 mL centrifuge tube and stored at 4° C.
DMEM with penicillin/streptomycin was prepared by adding 5 mL penicillin/streptomycin into 5 mL DMEM and stored at 4° C.
The plates were set up as follows: Each plate contained a minimum of two blanks (B), two non-specific binding wells (NSB), two maximum binding wells (B0), and an eight point standard curve run in duplicate (S1-S8).

Test [2] has as its target T2, COX-1 enzyme (ovine) (Ovis aries, UniProt P05979).
T2 construct: purchased Cayman Chemical $60100
T2 sequence (P05979 25-600): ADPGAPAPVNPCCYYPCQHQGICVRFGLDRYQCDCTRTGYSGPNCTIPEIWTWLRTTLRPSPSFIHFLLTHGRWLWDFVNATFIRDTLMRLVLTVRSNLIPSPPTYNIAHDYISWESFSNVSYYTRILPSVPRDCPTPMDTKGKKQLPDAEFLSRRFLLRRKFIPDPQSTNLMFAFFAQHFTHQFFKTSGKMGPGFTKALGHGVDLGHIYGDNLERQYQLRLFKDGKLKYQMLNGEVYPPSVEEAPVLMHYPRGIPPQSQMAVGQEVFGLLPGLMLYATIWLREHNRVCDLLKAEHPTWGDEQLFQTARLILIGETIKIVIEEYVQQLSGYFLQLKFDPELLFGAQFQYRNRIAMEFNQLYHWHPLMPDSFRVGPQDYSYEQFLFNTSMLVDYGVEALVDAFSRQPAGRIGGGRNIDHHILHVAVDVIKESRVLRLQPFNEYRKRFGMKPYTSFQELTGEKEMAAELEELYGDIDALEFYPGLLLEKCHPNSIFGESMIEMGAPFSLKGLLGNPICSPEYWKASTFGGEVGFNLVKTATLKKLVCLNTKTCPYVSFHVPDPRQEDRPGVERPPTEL
Put plainly: COX-1 enzyme inhibition (COX-1 synthesis of PGE2). Type of test: biochemical.
Description: General Prodecure—Oxygen-free 1.0M Tris-HCl buffer (pH 8.0) was prepared as follows: In a 1000 mL beaker, 12.11 g Trizma HCl was dissolved into 900 mL ultra-pure water. The beaker was placed on a stir plate with a stir bar. NaOH was added until the pH reached 8.0. The volume was adjusted to a final volume of 100 mL and stored in a 1000 mL storage bottle.
The Tris-HCl buffer was placed into a vacuum chamber with the top loosened and the air pump was turned on until the buffer stopped bubbling. The vacuum chamber was then turned off and the storage bottle was tightly covered. This steps was repeated each time when oxygen-free Tris-HCl buffer was used.
One mL cofactor solution was prepared by adding 1.3 mg (−) epinephrine, 0.3 mg reduced glutathione and 1.3 mg hematin to 1 mL oxygen free Tris-HCl buffer. The solutions of the test material were prepared as needed, i.e., 10 mg of aspirin was weighed and dissolved into 1 mL DMOS. Enzymes, i.e., prostaglandin E2 or prostaglandin F2alpha, were dissolved in oxygen free Tris-HCl buffer as follows, i.e., on ice, 6.5 μL of enzyme at 40,000 units/mL was taken and added to 643.5 μL of oxygen free Tris-HCl buffer. This enzyme solution is enough for 60 reactions. The COX-1 enzyme solution was prepared as follows: In a 15 mL centrifuge tube, 10 μL centrifuge tube, 10 μL COX-1 enzyme at 40,000 units/mL was added to oxygen free Tris-HCl with 50 μL of the cofactor solution per reaction. The mixture was incubated on ice for five minutes (i.e., for 60 reactions add 65 μL enzyme in oxygen free Tris-HCl buffer with 3.25 mL cofactor solution.
Sixty microliters of the enzyme solution were combined with 20 mL of the test solution in each well of a 96 well plate. […] The plates were preincubated on ice for 10 minutes. Twenty μL arachidonic acid (30 μM) was added and incubated for 15 minutes at 37° C.
The reaction was terminated by adding 10 μL 2 M HCl. The final solution was used as the supernatant for the PGE2 assay.
General Procedure—EIA Buffer was prepared by diluting the contents of the EIA Buffer Concentrate (vial #4) with 90 ml of Ultra-pure water. […]

Test [3] relates to COX-2 over COX-1. Conditions: reported, background; cited from earlier work.
Setting [4] is: RAW 264.7 cell model, read-out: COX-2 IC50 (converted).
[5] abbreviates: second component alone, PGE2 production by COX-2, RAW 264.7 cells, 24 h LPS, read-out: Second Component IC50 (converted).

Usually IC50 stands for the point on the concentration scale where inhibition reaches its midpoint. In the case of `C=C1CC[C@@H]2[C@](C)(CO)[C@H](O)CC[C@@]2(C)[C@@H]1C/C=C1/C(=O)OC[C@H]1O` [Andrographolide], the concentration for half-maximal inhibition (IC50) is 819 µM in test [1] (setting [4]); 591 µM in test [1] (setting [5]); ~4280 µM and 4280 µM in test [2] (ovine COX-1 enzyme, read-out: COX-1 IC50 (converted)). Besides, in test [1] (ratio COX-1 IC50 / COX-2 IC50), the “SPECIFICITY COX-1/COX-2” value was determined as 5.2.
`COc1cc(/C=C/C(=O)CC(=O)/C=C/c2ccc(O)c(OC)c2)ccc1O` [Curcumin]: the IC50 in test [2] (COX-1 IC50, ovine COX-1 enzyme) is 34.2 µM.
`C[C@H]1[C@H](C)CC[C@]2(C(=O)O)CC[C@]3(C)C(=CC[C@@H]4[C@@]5(C)CC[C@H](O)C(C)(C)[C@@H]5CC[C@]43C)[C@H]12` [Ursolic Acid, Ursolic acid]: the half-maximal inhibitory concentration (IC50) in test [1] (setting [4]) was 130 µM; in test [1] (setting [5]) it was 171 µM.
As to `CC(=O)Oc1ccccc1C(=O)O` [aspirin], the COX-2 specificity in test [3] was 0.6.
